Columns and labels:
Assay in all cases: biochemical
[1] = system: HCV NS3/4A protease D168A variant; type: biochemical, Hepatitis C virus; conditions: Table S1, value in parentheses
Protocol: (§1) The HCV GT1a NS3/4A protease gene described in the Bristol Myers Squibb patent was synthesized by GenScript and cloned into a PET28a expression vector. Cys159 was mutated to a serine residue to prevent disulfide bond formation and facilitate crystallization. The D168A gene was engineered using the site-directed mutagenesis protocol from Stratagene. Protein expression and purification were carried out as previously described.
(§2) Km constants for GT1 and D168A protease were previously determined. […] Inner filter effect corrections were applied to the initial velocities (Vo) at each substrate concentration. Vo versus substrate concentration graphs were globally fit to the Michaelis-Menten equation to obtain the Km value.
(§3) For each assay, 2 nM of NS3/4A protease (GT1a and D168A) was pre-incubated at room temperature for 1 h with increasing concentration of inhibitors in assay buffer (50 mM Tris, 5% glycerol, 10 mM DTT, 0.6 mM LDAO, and 4% dimethyl sulfoxide, pH 7.5). Inhibition assays were performed in non-binding surface 96-well black half-area plates (Corning) in a reaction volume of 60 μL. […] Three independent data sets were collected for each inhibitor with each protease construct.

[2] = target: T1, HCV NS3/4A protease D168A variant (Hepatitis C virus genotype 1a, UniProt P27958, C1185S/D1194A); type: biochemical
T1 construct: His-tag (cleaved yes); made in house; host or cells: Escherichia coli BL21(DE3), PET28a vector
T1 sequence (P27958 1027-1208 C1185S/D1194A): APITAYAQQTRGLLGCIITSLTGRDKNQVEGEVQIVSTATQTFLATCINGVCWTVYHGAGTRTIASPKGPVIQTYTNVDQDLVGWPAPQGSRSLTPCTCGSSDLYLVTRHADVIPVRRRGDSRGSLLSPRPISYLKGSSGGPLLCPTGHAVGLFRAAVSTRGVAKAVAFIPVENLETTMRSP
Protocol: as §1, §2, §3

[3] = target: T2, wild-type HCV NS3/4A protease (GT1a) (Hepatitis C virus genotype 1a, UniProt P27958, C1185S); type: biochemical
T2 construct: His-tag (cleaved yes); made in house; host or cells: Escherichia coli BL21(DE3), PET28a vector
T2 sequence (P27958 1027-1208 C1185S): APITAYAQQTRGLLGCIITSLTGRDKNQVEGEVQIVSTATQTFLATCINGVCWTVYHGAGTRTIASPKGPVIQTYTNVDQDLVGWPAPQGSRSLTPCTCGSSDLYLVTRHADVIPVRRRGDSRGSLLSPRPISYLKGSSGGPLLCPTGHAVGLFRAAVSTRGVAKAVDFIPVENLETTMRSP
Protocol: as §1, §2, §3

COc1ccc2nc(C)c(O[C@@H]3C[C@H]4C(=O)N[C@]5(C(=O)NS(=O)(=O)C6(C)CC6)C[C@H]5/C=C\CCCCC[C@H](NC(=O)[C@@H](NC(C)=O)C(C)C)C(=O)N4C3)nc2c1 [Inhibitor P4P5-1A, (2R,6S,13aS,14aR,16aS,Z)-6-((S)-2-Acetamido-3-methylbutanamido)-2-((7-methoxy-3-methylquinoxalin-2-yl)oxy)-N-((1-methylcyclopropyl)sulfonyl)-5,16-dioxo-1,2,3,6,7,8,9,10,11,13a,14,15,16,16a-tetradecahydrocyclopropa[e]pyrrolo[1,2-a][1,4]diazacyclopentadecine-14a(5H)-carboxamide]
Fold Change of D168A Ki with respect to GT1a wild-type [1]: (13) fold | Ki [2]: 141 ± 18 nM | Ki [3]: 11.1 ± 0.5 nM

COC(=O)N[C@H](C(=O)N[C@H]1CCCCC/C=C\[C@@H]2C[C@@]2(C(=O)NS(=O)(=O)C2(C)CC2)NC(=O)[C@@H]2C[C@@H](Oc3nc4cc(OC)ccc4nc3C)CN2C1=O)C(C)C [Inhibitor P4P5-1B, Methyl ((S)-1-(((2R,6S,13aS,14aR,16aS,Z)-2-((7-methoxy-3-methylquinoxalin-2-yl)oxy)-14a-(((1-methylcyclopropyl)sulfonyl)carbamoyl)-5,16-dioxo-1,2,3,5,6,7,8,9,10,11,13a,14,14a,15,16,16a-hexadecahydrocyclopropa[e]pyrrolo[1,2-a][1,4]diazacyclopentadecin-6-yl)amino)-3-methyl-1-oxobutan-2-yl)carbamate]
Fold Change of D168A Ki with respect to GT1a wild-type [1]: (8) fold | Ki [2]: 102 ± 6.8 nM | Ki [3]: 13 ± 0.8 nM

COc1ccc2nc(C)c(O[C@@H]3C[C@H]4C(=O)N[C@]5(C(=O)NS(=O)(=O)C6(C)CC6)C[C@H]5/C=C\CCCCC[C@H](NC(=O)O[C@@H](C)C(F)(F)F)C(=O)N4C3)nc2c1 [NR02-23, (S)-1,1,1-Trifluoropropan-2-yl ((2R,6S,13aS,14aR,16aS,Z)-2-((7-methoxy-3-methylquinoxalin-2-yl)oxy)-14a-(((1-methylcyclopropyl)sulfonyl)carbamoyl)-5,16-dioxo-1,2,3,5,6,7,8,9,10,11,13a,14,14a,15,16,16a-hexadecahydrocyclopropa[e]pyrrolo [1,2-a][1,4]diazacyclopentadecin-6-yl)carbamate]
Ki [2]: 40 ± 6 nM | Ki [3]: 0.74 ± 0.2 nM

COc1ccc2nc(C)c(O[C@@H]3C[C@H]4C(=O)N[C@]5(C(=O)NS(=O)(=O)C6(C)CC6)C[C@H]5/C=C\CCCCC[C@H](NC(=O)O[C@@H](C)C5CC5)C(=O)N4C3)nc2c1 [NR02-25, (S)-1-Cyclopropylethyl ((2R,6S,13aS,14aR,16aS,Z)-2-((7-methoxy-3-methylquinoxalin-2-yl)oxy)-14a-(((1-methylcyclopropyl)sulfonyl)carbamoyl)-5,16-dioxo-1,2,3,5,6,7,8,9,10,11,13a,14,14a,15,16,16a-hexadecahydrocyclopropa[e]pyrrolo [1,2-a][1,4]diazacyclopentadecin-6-yl)carbamate]
Ki [2]: 31.9 ± 1.8 nM | Ki [3]: 1.84 ± 0.12 nM

COc1ccc2nc(C)c(O[C@@H]3C[C@H]4C(=O)N[C@]5(C(=O)NS(=O)(=O)C6(C)CC6)C[C@H]5/C=C\CCCCC[C@H](NC(=O)O[C@H](C)C5CC5)C(=O)N4C3)nc2c1 [NR02-26, (R)-1-Cyclopropylethyl ((2R,6S,13aS,14aR,16aS,Z)-2-((7-methoxy-3-methylquinoxalin-2-yl)oxy)-14a-(((1-methylcyclopropyl)sulfonyl)carbamoyl)-5,16-dioxo-1,2,3,5,6,7,8,9,10,11,13a,14,14a,15,16,16a-hexadecahydrocyclopropa[e]pyrrolo[1,2-a][1,4]diazacyclopentadecin-6-yl)carbamate]
Ki [2]: 23.5 ± 1.3 nM | Ki [3]: 1.5 ± 0.06 nM

COc1ccc2nc(C(F)(F)F)c(O[C@@H]3C[C@H]4C(=O)N[C@]5(C(=O)NS(=O)(=O)C6(C)CC6)C[C@H]5/C=C\CCCCC[C@H](NC(=O)OC5(C)CC5)C(=O)N4C3)nc2c1 [NR02-31, 1-Methylcyclopropyl ((2R,6S,13aS,14aR,16aS,Z)-2-((7-methoxy-3-(trifluoromethyl)quinoxalin-2-yl)oxy)-14a-(((1-methylcyclopropyl)sulfonyl)carbamoyl)-5,16-dioxo-1,2,3,5,6,7,8,9,10,11,13a,14,14a,15,16,16a-hexadecahydrocyclopropa[e]pyrrolo[1,2-a][1,4]diazacyclopentadecin-6-yl)carbamate]
Ki [2]: 41.3 ± 7.3 nM | Ki [3]: 11.4 ± 0.84 nM

COc1ccc2nc(C(F)(F)F)c(O[C@@H]3C[C@H]4C(=O)N[C@]5(C(=O)NS(=O)(=O)C6(C)CC6)C[C@H]5/C=C\CCCCC[C@H](NC(=O)O[C@H](C)C5CC5)C(=O)N4C3)nc2c1 [NR02-34, (R)-1-Cyclopropylethyl ((2R,6S,13aS,14aR,16aS,Z)-2-((7-methoxy-3-(trifluoromethyl)quinoxalin-2-yl)oxy)-14a-(((1-methylcyclopropyl)sulfonyl)carbamoyl)-5,16-dioxo-1,2,3,5,6,7,8,9,10,11,13a,14,14a,15,16,16a-hexadecahydrocyclopropa[e]pyrrolo[1,2-a][1,4]diazacyclopentadecin-6-yl)carbamate]
Ki [2]: 26.2 ± 0.6 nM | Ki [3]: 11.8 ± 1.4 nM

COc1ccc2nc(C(F)(F)F)c(O[C@@H]3C[C@H]4C(=O)N[C@]5(C(=O)NS(=O)(=O)C6(C)CC6)C[C@H]5/C=C\CCCCC[C@H](NC(=O)OCC(C)C)C(=O)N4C3)nc2c1 [NR02-41, Isobutyl ((2R,6S,13aS,14aR,16aS,Z)-2-((7-methoxy-3-(trifluoromethyl)quinoxalin-2-yl)oxy)-14a-(((1-methylcyclopropyl)sulfonyl)carbamoyl)-5,16-dioxo-1,2,3,5,6,7,8,9,10,11,13a,14,14a,15,16,16a-hexadecahydrocyclopropa[e]pyrrolo[1,2-a][1,4]diazacyclopentadecin-6-yl)carbamate]
Ki [2]: 14.9 ± 1.4 nM | Ki [3]: 4.01 ± 0.46 nM

CCC(C)(C)OC(=O)N[C@H]1CCCCC/C=C\[C@@H]2C[C@@]2(C(=O)NS(=O)(=O)C2(C)CC2)NC(=O)[C@@H]2C[C@@H](Oc3nc4cc(OC)ccc4nc3C(F)(F)F)CN2C1=O [NR02-47, tert-Pentyl ((2R,6S,13aS,14aR,16aS,Z)-2-((7-methoxy-3-(trifluoromethyl)quinoxalin-2-yl)oxy)-14a-(((1-methylcyclopropyl)sulfonyl)carbamoyl)-5,16-dioxo-1,2,3,5,6,7,8,9,10,11,13a,14,14a,15,16,16a-hexadecahydrocyclopropa[e]pyrrolo[1,2-a][1,4]diazacyclopentadecin-6-yl)carbamate]
Ki [2]: 15.1 ± 1 nM | Ki [3]: 2.67 ± 0.23 nM

COc1ccc2nc(C(F)(F)F)c(O[C@@H]3C[C@H]4C(=O)N[C@]5(C(=O)NS(=O)(=O)C6(C)CC6)C[C@H]5/C=C\CCCCC[C@H](NC(=O)OCC(C)(C)C)C(=O)N4C3)nc2c1 [NR02-48, Neopentyl ((2R,6S,13aS,14aR,16aS,Z)-2-((7-methoxy-3-(trifluoromethyl)quinoxalin-2-yl)oxy)-14a-(((1-methylcyclopropyl)sulfonyl)carbamoyl)-5,16-dioxo-1,2,3,5,6,7,8,9,10,11,13a,14,14a,15,16,16a-hexadecahydrocyclopropa[e]pyrrolo[1,2-a][1,4]diazacyclopentadecin-6-yl)carbamate]
Ki [2]: 13 ± 1.6 nM | Ki [3]: 2.94 ± 0.14 nM

COc1ccc2nc(C)c(O[C@@H]3C[C@H]4C(=O)N[C@]5(C(=O)NS(=O)(=O)C6(C)CC6)C[C@H]5/C=C\CCCCC[C@H](NC(=O)OCC5(C(F)(F)F)CC5)C(=O)N4C3)nc2c1 [NR02-49, (1-(Trifluoromethyl)cyclopropyl)methyl ((2R,6S,13aS,14aR,16aS,Z)-2-((7-methoxy-3-methylquinoxalin-2-yl)oxy)-14a-(((1-methylcyclopropyl)sulfonyl)carbamoyl)-5,16-dioxo-1,2,3,5,6,7,8,9,10,11,13a,14,14a,15,16,16a-hexadecahydrocyclopropa[e]pyrrolo[1,2-a][1,4]diazacyclopentadecin-6-yl)carbamate]
Ki [2]: 27.4 ± 1.2 nM | Ki [3]: 0.9 ± 0.1 nM

COc1ccc2nc(C(F)(F)F)c(O[C@@H]3C[C@H]4C(=O)N[C@]5(C(=O)NS(=O)(=O)C6(C)CC6)C[C@H]5/C=C\CCCCC[C@H](NC(=O)OCC5(C(F)(F)F)CC5)C(=O)N4C3)nc2c1 [NR02-50, (1-(Trifluoromethyl)cyclopropyl)methyl ((2R,6S,13aS,14aR,16aS,Z)-2-((7-methoxy-3-(trifluoromethyl)quinoxalin-2-yl)oxy)-14a-(((1-methylcyclopropyl)sulfonyl)carbamoyl)-5,16-dioxo-1,2,3,5,6,7,8,9,10,11,13a,14,14a,15,16,16a-hexadecahydrocyclopropa[e]pyrrolo[1,2-a][1,4]diazacyclopentadecin-6-yl)carbamate]
Ki [2]: 39.5 ± 5.1 nM | Ki [3]: 3.46 ± 0.26 nM

CCC(CC)OC(=O)N[C@H]1CCCCC/C=C\[C@@H]2C[C@@]2(C(=O)NS(=O)(=O)C2(C)CC2)NC(=O)[C@@H]2C[C@@H](Oc3nc4cc(OC)ccc4nc3C(F)(F)F)CN2C1=O [NR02-52, Pentan-3-yl ((2R,6S,13aS,14aR,16aS,Z)-2-((7-methoxy-3-(trifluoromethyl)quinoxalin-2-yl)oxy)-14a-(((1-methylcyclopropyl)sulfonyl)carbamoyl)-5,16-dioxo-1,2,3,5,6,7,8,9,10,11,13a,14,14a,15,16,16a-hexadecahydrocyclopropa[e]pyrrolo[1,2-a][1,4]diazacyclopentadecin-6-yl)carbamate]
Ki [2]: 20.9 ± 2.1 nM | Ki [3]: 4.6 ± 0.66 nM
